Experiment [1] concerns the target FGFR2 (Homo sapiens (Human), UniProt P21802). As to the kind of experiment: FGFR2 kinase activity at the molecular level (ELISA, Poly(Glu,Tyr) 4:1 substrate). In kind it is biochemical. To be noted: kinase domain recombinant protein, 5 μM ATP. On the procedure:
(§1) 100 μL/well of 2 mg/mL OPD developing solution (diluted with 0.1M citric acid-sodium citrate buffer containing 0.03% H2O2 (pH=5.4)), and reacted in dark for 1-10 minutes at 25° C.
(In general: An ELISA detects its analyte on a solid surface through an enzyme-linked reagent.)

The target in experiment [2] is FGFR3 (Homo sapiens (Human), UniProt P22607). Nature of the experiment: FGFR3 kinase activity at the molecular level (ELISA, Poly(Glu,Tyr) 4:1 substrate). In kind it is biochemical. The following applies: kinase domain recombinant protein, 5 μM ATP. On the procedure:
as §1

Experiment [3] has as its system acute myelogenous leukemia cell strain KG1. As to the kind of experiment: Growth inhibition of FGFR1-dependent KG1 cells (CCK-8). To be noted: Homo sapiens, KG-1, 72 h treatment. In kind it is cell-based. On the procedure: The growth inhibition of the acute myelogenous leukemia cell strain KG1 (FGFR1-dependent tumor cell strain; the FGFR1 fusion protein in the cell was expressed in the cytoplasm; purchased from ATCC cell bank) by the compounds was detected with CCK-8 cell count kit (Dojindo). The specific steps are as follows: KG1 cells in logarithmic growth phase were seeded onto a 96-well culture plate in appropriate density, 90 ul per well. After overnight culture, different concentrations of compounds were added and the treatment continued for 72 h, and solvent control group (negative control) was set. After treatment for 72 h, the effect of the compounds on cell proliferation was observed by CCK-8 cell counting kit (Dojindo). 10 μL of CCK-8 reagent was added to each well. After incubated for 2-4 hours in a 37 □ incubator, read with SpectraMax 190 microplate reader at 450 nm wavelength. The inhibition rate (%) of the compounds on tumor cell growth was calculated using the following formula: Inhibition rate (%)=(OD negative control well-OD administered well)/OD negative control well×100%.

Experiment [4] addresses FGFR1 (Homo sapiens (Human), UniProt P11362). Nature of the experiment: FGFR1 kinase activity at the molecular level (ELISA, Poly(Glu,Tyr) 4:1 substrate). In kind it is biochemical. To be noted: kinase domain recombinant protein, 5 μM ATP. On the procedure: as §1

Sequence of FGFR3 (P22607 472-761): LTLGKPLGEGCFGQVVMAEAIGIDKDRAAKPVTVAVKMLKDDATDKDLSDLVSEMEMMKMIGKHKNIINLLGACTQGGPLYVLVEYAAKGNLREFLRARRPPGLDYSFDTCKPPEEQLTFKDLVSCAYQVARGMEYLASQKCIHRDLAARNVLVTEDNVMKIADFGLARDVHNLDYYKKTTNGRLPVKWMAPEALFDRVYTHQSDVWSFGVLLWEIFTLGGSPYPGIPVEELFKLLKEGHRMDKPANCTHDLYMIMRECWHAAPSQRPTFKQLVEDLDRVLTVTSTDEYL
Sequence of FGFR1 (P11362 478-767): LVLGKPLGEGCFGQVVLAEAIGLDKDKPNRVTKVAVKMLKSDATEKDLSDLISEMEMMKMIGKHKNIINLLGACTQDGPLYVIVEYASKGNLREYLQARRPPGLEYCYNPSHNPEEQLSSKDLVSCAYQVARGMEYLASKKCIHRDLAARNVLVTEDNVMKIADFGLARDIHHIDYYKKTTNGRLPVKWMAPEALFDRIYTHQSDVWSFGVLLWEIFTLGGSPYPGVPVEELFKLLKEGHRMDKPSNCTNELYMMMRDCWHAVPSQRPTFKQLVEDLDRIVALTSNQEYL
Sequence of FGFR2 (P21802 481-770): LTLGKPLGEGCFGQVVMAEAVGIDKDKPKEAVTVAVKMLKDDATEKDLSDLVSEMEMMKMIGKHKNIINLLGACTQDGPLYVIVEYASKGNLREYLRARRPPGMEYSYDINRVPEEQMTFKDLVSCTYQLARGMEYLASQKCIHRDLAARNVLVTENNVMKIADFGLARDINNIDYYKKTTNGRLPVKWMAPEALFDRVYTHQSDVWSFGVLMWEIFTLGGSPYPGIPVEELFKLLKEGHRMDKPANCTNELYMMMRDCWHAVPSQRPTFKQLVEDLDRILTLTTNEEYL

What is called IC50 is the concentration that gives 50% inhibition. In the case of `COc1cc(OC)c(Cl)c(-c2ccc3c(NC(=O)c4ccc(N5CCOCC5)cc4)n[nH]c3c2)c1Cl` [Example 17, N-(6-(2,6-dichloro-3,5-dimethoxyphenyl)-1H-indazole-3-yl)-4-morpholino benzamide], the IC50 is less than 100 nM in experiment [1], less than 100 nM in experiment [2], 200 to 1000 nM in experiment [3] and less than 100 nM in experiment [4].
For `COc1cc(OC)c(Cl)c(-c2ccc3c(NC(=O)c4ccc(N5CCN(C)CC5)cc4)n[nH]c3c2)c1Cl` [Example 15, N-(6-(2,6-dichloro-3,5-dimethoxyphenyl)-1H-indazole-3-yl)-4-(4-methylpiperazine-1-yl)benzamide], the IC50 in experiment [1] was less than 100 nM; in experiment [2], less than 100 nM; in experiment [3], less than 200 nM; in experiment [4], less than 100 nM.
Take `CCN1CCN(c2ccc(C(=O)Nc3n[nH]c4cc(-c5c(Cl)c(OC)cc(OC)c5Cl)ccc34)cc2)CC1` [Example 18, N-(6-(2,6-dichloro-3,5-dimethoxyphenyl)-1H-indazole-3-yl)-4-(4-ethylpiperazine-1-yl)benzamide]: the IC50 in experiment [1] is less than 100 nM; in experiment [2], less than 100 nM; in experiment [3], less than 200 nM; in experiment [4], less than 100 nM.
The compound `COc1cc(OC)c(Cl)c(-c2ccc3c(NC(=O)c4ccc(N5C[C@@H](C)N[C@@H](C)C5)cc4)n[nH]c3c2)c1Cl` [Example 14] returned an IC50 in experiment [3] of less than 200 nM.
As for `COc1cc(OC)c(Cl)c(-c2ccc3c(NC(=O)c4ccc(CN5CCN(C(C)=O)CC5)cc4)n[nH]c3c2)c1Cl` [Example 19, 4-((4-acetyl-1-yl)methyl)-N-(6-(2,6-dichloro-3,5-dimethoxyphenyl)-1H-indazole-3-yl)benzamide], the IC50 was less than 100 nM in experiment [1], less than 100 nM in experiment [2], 200 to 1000 nM in experiment [3] and less than 100 nM in experiment [4].
For `COc1cc(OC)c(Cl)c(-c2ccc3c(NC(=O)c4ccc(CN5CCN(C)CC5)cc4)n[nH]c3c2)c1Cl` [Example 16, N-(6-(2,6-dichloro-3,5-dimethoxyphenyl)-1H-indazole-3-yl)-4-((4-methylpiperazine-1-yl)methyl)benzamide], the IC50 was less than 100 nM in experiment [1], less than 100 nM in experiment [2], 200 to 1000 nM in experiment [3] and less than 100 nM in experiment [4].
